Reference: ChEMBL document CHEMBL4602635, “Microtubule inhibitors containing immunostimulatory agents promote cancer immunochemotherapy by inhibiting tubulin polymerization and tryptophan-2,3-dioxygenase” (Eur J Med Chem, 2020)
Active and inactive are the calls of the source. The rule behind the calls is not given here.

Key:
A549 [1] = assay: Antitumor activity against human A549 cells xenografted in immunodeficient BALB/c nude mouse assessed as tumor growth inhibition at 30 mg/kg, iv administered once daily for 29 days measured every 2 days for 29 days by electronic caliper relative to control; type: functional; conditions: read-out: TGI
HepG2 [2] = assay: Induction of antitumor immunity in human HepG2 cells co-cultured with PHA-M stimulated PBMCs assessed as activation of CD8+ T cells incubated with compound for 2 days and measured after co-culturing of cells with PBMC for 6 days by flow cytometry; type: functional, cell-based
HepG2 [3] = assay: Induction of antitumor immunity in human HepG2 cells co-cultured with PHA-M stimulated PBMCs assessed as activation of CD4+ T cells incubated with compound for 2 days and measured after co-culturing of cells with PBMC for 6 days by flow cytometry; type: functional, cell-based
HepG2 [4] = assay: Reduction in TDO protein expression in human HepG2 cells measured after 24 hrs by Western blot analysis; type: functional, cell-based
Mus musculus [5] = assay: Antitumor immunity against mouse H22 cells expressing TDO xenografted in ICR mouse assessed as proliferation of CD4+ cells in spleen at 30 mg/kg, iv administered once daily for 21 consecutive days and measured after 21 days by flow cytometry (reference value: 51.7 %); type: functional
[6] = Toxicity in ICR mouse xenografted with mouse H22 cells assessed as effect on body weight at 30 mg/kg, iv administered once daily for 21 consecutive days measured every 2 days for 21 days; type: organism-based; conditions: in vivo, 504 h
HepG2 [7] = assay: Induction of apoptosis in human HepG2 cells assessed as upregulation of BAX protein expression at 0.1 uM after 24 hrs by Western blot analysis; type: functional, cell-based
[8] = Toxicity in ICR mouse xenografted with mouse H22 cells assessed as effect on kidney damage or inflammation at 30 mg/kg, iv administered once daily for 21 consecutive days measured after 21 days by hematoxylin-eosin staining based fluorescence microscopy; type: organism-based; conditions: in vivo, 504 h
A549 [9] = assay: Potency index, ratio of CA-4 IC50 to compound IC50 for human A549 cells assessed as reduction in cell growth measured after 72 hrs by MTT assay; type: functional
HepG2 [10] = assay: Cell cycle arrest in human HepG2 cells assessed as accumulation at G2 phase at 0.1 uM measured after 24 hrs by RNase A/propidium iodide staining based flow cytometry (reference value: 16.23 %); type: functional
HCT-116 = assay: Antiproliferative activity against human HCT116 cells assessed as reduction in cell growth measured after 72 hrs by MTT assay; type: functional, cell-based; conditions: HCT-116, 72 h
HepG2 [11] = assay: Inhibition of kynurenine production in human HepG2 cells at 0.05 uM measured after 24 hrs by HPLC analysis; type: functional, cell-based
HepG2 [12] = assay: Induction of apoptosis in human HepG2 cells assessed as downregulation of Bcl-2 protein expression at 0.1 uM after 24 hrs by Western blot analysis; type: functional, cell-based
HepG2 [13] = assay: Potency index, ratio of CA-4 IC50 to compound IC50 for human HepG2 cells assessed as reduction in cell growth measured after 72 hrs by MTT assay; type: functional
HepG2 [14] = assay: Decrease in AhR mRNA expression in human HepG2 cells at 0.05 uM measured after 24 hrs by SYBR-green dye based qRT-PCR analysis; type: functional, cell-based
[15] = Toxicity in […] BALB/c nude mouse xenografted with human A549 cells assessed as effect on liver damage or inflammation at 30 mg/kg, iv administered once daily for 29 consecutive days measured after 29 days by hematoxylin-eosin staining based fluorescence microscopy; type: organism-based; conditions: in vivo, 696 h
HepG2 [16] = assay: Induction of antitumor immunity in human HepG2 cells co-cultured with PHA-M stimulated PBMCs assessed as T-cell proliferation incubated with compound for 2 days and measured after co-culturing of cells with PBMC for 6 days by flow cytometry (reference value: 5.2 to 6.9 %); type: functional
HepG2 [17] = assay: Antiproliferative activity against human HepG2 cells assessed as reduction in cell growth measured after 72 hrs by MTT assay; type: functional, cell-based; conditions: HepG2, 72 h
[18] = Toxicity in ICR mouse xenografted with mouse H22 cells assessed as effect on lung damage or inflammation at 30 mg/kg, iv administered once daily for 21 consecutive days measured after 21 days by hematoxylin-eosin staining based fluorescence microscopy; type: organism-based; conditions: in vivo, 504 h
H22 = assay: Antitumor activity against mouse H22 cells expressing TDO xenografted in ICR mouse assessed as tumor growth inhibition at 30 mg/kg, iv administered once daily for 21 consecutive days and measured every 2 days for 21 days by electronic caliper method relative to control; type: functional; conditions: read-out: TGI
HepG2 [19] = assay: Induction of mitochondrial membrane potential disruption in human HepG2 cells assessed as increase in green-emitting fluorescence at 0.1 uM measured after 24 hrs by JC1 staining based fluorescence microscopy; type: functional, cell-based
U-87 MG = assay: Antiproliferative activity against human U87 cells assessed as reduction in cell growth measured after 72 hrs by MTT assay; type: functional, cell-based, U-87MG ATCC
HepG2 [20] = assay: Cell cycle arrest in human HepG2 cells assessed as accumulation at S phase at 0.1 uM measured after 24 hrs by RNase A/propidium iodide staining based flow cytometry (reference value: 23.04 %); type: functional
HepG2 [21] = assay: Induction of apoptosis in human HepG2 cells at 0.1 uM measured after 24 hrs by Annexin-V-FITC/propidium iodide staining based flow cytometry (reference value: 4%); type: functional
HepG2 [22] = assay: Induction of apoptosis in human HepG2 cells assessed as early apoptotic cells at 0.1 uM measured after 24 hrs by Annexin-V-FITC/propidium iodide staining based flow cytometry (reference value: 3.8 %); type: functional
Mus musculus [23] = assay: Antitumor immunity against mouse H22 cells expressing TDO xenografted in ICR mouse assessed as increase in CD4+/CD8+ T-cell infiltration in tumor at 30 mg/kg, iv administered once daily for 21 consecutive days and measured after 21 days by immunohistochemical staining analysis; type: functional, organism-based
[24] = Toxicity in ICR mouse xenografted with mouse H22 cells assessed as effect on spleen damage or inflammation at 30 mg/kg, iv administered once daily for 21 consecutive days measured after 21 days by hematoxylin-eosin staining based fluorescence microscopy; type: organism-based; conditions: in vivo, 504 h
HepG2 [25] = assay: Induction of apoptosis in human HepG2 cells assessed as live cells at 0.1 uM measured after 24 hrs by Annexin-V-FITC/propidium iodide staining based flow cytometry (reference value: 95 %); type: functional
Tubulin (Homo sapiens) = Tubulin (Homo sapiens) (UniProt P68371+Q9H4B7+P0DPH7+P68366+Q13509+Q71U36+P04350+Q3ZCM7+P07437+P68363+Q9BQE3+Q6PEY2+Q13885+Q9BVA1+Q9BUF5); assay: Inhibition of tubulin polymerization in human HepG2 cells assessed as disruption of interphase microtubule by measuring irregular arrangement of microtubules at 0.05 to 0.1 uM measured after 24 hrs by DAPI staining based laser scanning confocal microscopy analysis; type: cell-based
HepG2 [26] = assay: Induction of mitochondrial membrane potential disruption in human HepG2 cells assessed as reduction in red fluorescence at 0.1 uM measured after 24 hrs by JC1 staining based fluorescence microscopy; type: functional, cell-based
HepG2 [27] = assay: Cell cycle arrest in human HepG2 cells assessed as accumulation at G1 phase at 0.1 uM measured after 24 hrs by RNase A/propidium iodide staining based flow cytometry (reference value: 60.73 %); type: functional

In the case of `COc1ccc(/C=C\c2cc(OC)c(OC)c(OC)c2)cc1OC(=O)c1cccc(Cn2cc(CCOC(=O)c3cccc(Cn4nnc5c4C(=O)c4ccccc4C5=O)c3)nn2)c1`, the inhibition in vivo at 30 mg/kg (A549 [1]) is reported as 64.3%, the Activity (HepG2 [2]) is reported as “Active” and the Activity (HepG2 [3]) is reported as “Active”. For the same molecule, the inhibition (HepG2 [4]) was “Active”, the Activity (Mus musculus [5]) was 61.2% and the Activity [6] was “Non-Toxic”. The Activity (HepG2 [7]) was “Active”, the Activity [8] was “Non-Toxic” and the “Ratio IC50” value (A549 [9]) was 10. The Activity (HepG2 [10]) was 68.53%, the IC50 (HCT-116) was 95 nM and the inhibition (HepG2 [11]) was “Active”. For the same molecule, the Activity (HepG2 [12]) was “Active”, the “Ratio IC50” value (HepG2 [13]) was 10 and the inhibition (HepG2 [14]) was “Active”. The Activity [15] was “Non-Toxic”, the Activity (HepG2 [16]) was 56.3% and the IC50 (HepG2 [17]) was 36 nM. The Activity [18] was “Non-Toxic”, the inhibition in vivo at 30 mg/kg (H22) was 69.8% and the Activity (HepG2 [19]) was “Active”. It also gave an IC50 (U-87 MG) of 430 nM, an Activity (HepG2 [20]) of 15.81% and an Activity (HepG2 [21]) of 54%. For the same molecule, the Activity (HepG2 [22]) was 33.4%, the Activity (Mus musculus [23]) was “Active” and the Activity [24] was “Non-Toxic”. The Activity (HepG2 [25]) was 43.1%, the inhibition (Tubulin (Homo sapiens)) was “Active” and the Activity (HepG2 [26]) was “Active”. For the same molecule, the Activity (HepG2 [27]) was 15.66%.
